In publication PMC7797213, “Vascular effects of serelaxin in patients with stable coronary artery disease: a randomized placebo-controlled trial” (Cardiovascular Research, 2020):

Assays:
Assay type in all cases: in vivo, human
[1] = tested on: patients with stable coronary artery disease; experiment: Aortic MRI measurements of arterial stiffness (strain, distensibility, peak flow velocity); settings: for Ascending aorta distensibility / Ascending aorta strain / Descending aorta distensibility / Descending aorta strain / Peak flow velocity: mean ± SD
Procedure: Full left ventricular short-axis stack of cine images was acquired during the interval between stress and rest first-pass perfusion acquisitions. Following administration of the top-up contrast dose (Gadovist 0.05 mmol/kg), aortic cine and phase-velocity encoding sequences were acquired at the level of the pulmonary artery bifurcation. LGE imaging was performed with a segmented phase-sensitive inversion recovery sequence.
CMR image collection, blinding, and handling were managed by an independent imaging contract-research organization (CRO; VirtualScopics, Inc., Rochester, NY, USA). The CMR quantitative analyses were performed by blinded academic readers with >3 years of CMR experience (D.C., A.R., and C.B.). Cine images for ventricular volumes and mass and myocardial perfusion images were manually contoured (QMass, Medis, Leiden, Netherlands). Myocardial blood flow (MBF) was derived from stress and rest perfusion images using a Fermi deconvolution method,[25] implemented in MATLAB.[26] Global MPR was calculated from the ratio of global MBF evaluated at stress and at rest (MPR = stress MBF/rest MBF). Global MBF was calculated by averaging the MBF (mL/g/min) for basal, mid, and apical short-axis left ventricular slices. Ascending and descending aortic strain and distensibility were derived from manually contoured end-diastolic and end-systolic aortic cine images. Aortic strain (AS, unit free fraction) = [maximum aortic lumen area − minimum aortic lumen area]/minimum aortic lumen area. Aortic distensibility (AD, mmHg^−^1) = aortic strain/pulse pressure. Ascending aortic peak flow velocity (m/s) was derived from manually contoured phase-velocity encoding sequence images (QFlow, Medis, Leiden, Netherlands). The presence or absence of myocardial scar was qualitatively assessed on the LGE images.
Model: Change from baseline was analysed using ANCOVA model including treatment as fixed effect and baseline as continuous covariate.

hsTnT = experiment: Plasma biomarker high-sensitivity troponin T; parameters: hs Troponin-T, geo-mean (95% CI): unit not given here
Procedure: (§1) Biomarkers reported include: N-terminal pro-brain natriuretic peptide (NT-proBNP), high-sensitivity troponin T (hsTnT) measured to assess myocardial safety; cystatin C measured to access renal function; the biologically active form of endothelin-1 (1–21), measured to assess vascular function. Venous blood samples were collected at 0 (pre-dose), 24, 48, and 54 h, Day 30, and Day 180. NT-proBNP, hsTnT, and cystatin C samples were collected in EDTA tubes while endothelin-1 samples were collected in EDTA tubes containing aprotinin. Plasma was immediately frozen at −70°C pending analysis in complete patient sets. Commercial biomarker kits were as follows: hsTnT from Roche Diagnostics GmbH, Germany; cystatin C from Gentian, Moss, Norway; and active endothelin-1 […] from Biomedica Medizinprodukte, Vienna, Austria.
(§2) For the biomarker analyses, baseline was defined as the pre-dose assessment on Day 1. Raw values as well as changes from baseline were summarized by treatment and time. Descriptive statistics included geometric mean and 95% CI. For geometric means of change from baseline, a ratio to baseline was used to determine percentage change by first calculating in the log domain and then back transforming using exponentiation.
(§3) Baseline corresponds to the value at day 1 pre-dose. For change from baseline, geometric mean and its CI are calculated for the value (post) to baseline ratio.

NT-proBNP = experiment: Plasma biomarker NT-proBNP; settings: for NT-proBNP, geo-mean (95% CI): plasma
Procedure: as §1, §2, §3

[2] = tested on: patients with stable coronary artery disease; experiment: Applanation tonometry-derived augmentation index (AIx); settings: for AIx, absolute value: mean ± SD; for AIx, adjusted mean difference serelaxin versus placebo / AIx, change from baseline (adjusted mean): repeated measures ANCOVA
Procedure: (30 μg/kg/day) or matching placebo, using a computerized randomization system involving concealed treatment arms. The co-primary endpoints were the change from baseline in global myocardial perfusion reserve (MPR) measured by quantitative perfusion cardiac magnetic resonance (CMR) imaging and the change from baseline in augmentation index (AIx) measured by applanation tonometry. The primary endpoints of MPR and AIx were assessed at baseline and 47 h post-commencement of the infusion (Figure 1).
The applanation tonometry assessments were performed by blinded operators. Augmentation index [AIx = (augmentation pressure/pulse pressure) × 100], and carotid-femoral PWV were measured by applanation tonometry (Sphygmocor®, AtCor Medical, Australia) at a proximal (carotid artery) and a distal (femoral artery) site of the body, utilizing R-wave gated determination of the time interval between the two measurement points. An averaged carotid pressure waveform (from a 10 s recording) was converted into a corresponding central waveform using a validated transfer function (SphygmoCor®, AtCor, Australia).[27]^,[28]

[3] = baseline to day 3, ANCOVA, n=23

## Serelaxin
[1]; 0 h (pre-dose baseline), n=24
  Ascending aorta distensibility: 0.002 ± 0.002 (24) mm/Hg
  Ascending aorta strain: 0.12 ± 0.06 (24)
  Descending aorta distensibility: 0.002 ± 0.001 (24) mm/Hg
  Descending aorta strain: 0.16 ± 0.06 (24)
  Peak flow velocity: 128.00 ± 66.69 (24) cm/sec
[1]; 47 h post-dose, n=23
  Ascending aorta distensibility: 0.002 ± 0.001 (23) mm/Hg
  Ascending aorta strain: 0.12 ± 0.06 (23)
  Descending aorta distensibility: 0.002 ± 0.001 (23) mm/Hg
  Descending aorta strain: 0.17 ± 0.05 (23)
  Peak flow velocity: 127.98 ± 60.76 (23) cm/sec
[1]; ascending/descending aorta strain and distensibility, ascending aortic peak flow velocity, P > 0.05 for all
  CMR-derived parameters of aortic stiffness, change from baseline to 47 h compared with placebo: no significant change
[1]; baseline to day 3, ANCOVA
  Ascending aorta distensibility, adjusted mean difference serelaxin versus placebo: -0.0001 mm/Hg
  Ascending aorta strain, adjusted mean difference serelaxin versus placebo: 0.01
  Descending aorta distensibility, adjusted mean difference serelaxin versus placebo: -0.0001 mm/Hg
  Descending aorta strain, adjusted mean difference serelaxin versus placebo: 0.01
  Peak flow velocity, adjusted mean difference serelaxin versus placebo: 13.71 cm/sec
[1]; [3]
  Ascending aorta distensibility, change from baseline (adjusted mean): -0.0001 mm/Hg
  Ascending aorta strain, change from baseline (adjusted mean): 0.01
  Descending aorta distensibility, change from baseline (adjusted mean): 0.0001 mm/Hg
  Descending aorta strain, change from baseline (adjusted mean): 0.011
  Peak flow velocity, change from baseline (adjusted mean): 10.12 cm/sec
hsTnT; 24 h, n=27
  hs Troponin-T change from baseline, geometric mean ratio to baseline (95% CI): 0.90 (0.80, 1.01)
hsTnT; 48 h, n=28
  hs Troponin-T change from baseline, geometric mean ratio to baseline (95% CI): 0.87 (0.79, 0.95)
hsTnT; 54 h, n=27
  hs Troponin-T change from baseline, geometric mean ratio to baseline (95% CI): 1.02 (0.85, 1.24)
hsTnT; Day 30, n=29
  hs Troponin-T change from baseline, geometric mean ratio to baseline (95% CI): 0.89 (0.78, 1.02)
hsTnT; Day 180, n=29
  hs Troponin-T change from baseline, geometric mean ratio to baseline (95% CI): 1.09 (0.91, 1.31)
hsTnT; plasma, 0 h (pre-dose baseline), n=29
  hs Troponin-T, geo-mean (95% CI): 0.0076 (0.0057, 0.0102)
hsTnT; plasma, 24 h, n=27
  hs Troponin-T, geo-mean (95% CI): 0.0064 (0.0049, 0.0084)
hsTnT; plasma, 48 h, n=28
  hs Troponin-T, geo-mean (95% CI): 0.0066 (0.0049, 0.0089)
hsTnT; plasma, 54 h, n=27
  hs Troponin-T, geo-mean (95% CI): 0.0079 (0.0057, 0.0110)
hsTnT; plasma, Day 30, n=29
  hs Troponin-T, geo-mean (95% CI): 0.0068 (0.0053, 0.0088)
hsTnT; plasma, Day 180, n=29
  hs Troponin-T, geo-mean (95% CI): 0.0083 (0.0066, 0.0105)
hsTnT; plasma, pre-dose baseline, serelaxin group
  hsTnT geometric mean at baseline: 7.6 ng/L
NT-proBNP; 24 h, n=27
  NT-proBNP change from baseline, geometric mean ratio to baseline (95% CI): 0.89 (0.77, 1.02)
  NT-proBNP, geo-mean (95% CI): 74.7 (51.9, 107.5) pg/mL
NT-proBNP; 48 h, n=28
  NT-proBNP change from baseline, geometric mean ratio to baseline (95% CI): 1.03 (0.79, 1.34)
  NT-proBNP, geo-mean (95% CI): 86.8 (57.7, 130.5) pg/mL
NT-proBNP; 54 h, n=27
  NT-proBNP change from baseline, geometric mean ratio to baseline (95% CI): 1.36 (1.06, 1.75)
  NT-proBNP, geo-mean (95% CI): 117.1 (79.9, 171.7) pg/mL
NT-proBNP; Day 30, n=29
  NT-proBNP change from baseline, geometric mean ratio to baseline (95% CI): 1.02 (0.80, 1.29)
  NT-proBNP, geo-mean (95% CI): 88.4 (60.3, 129.7) pg/mL
NT-proBNP; Day 180, n=29
  NT-proBNP change from baseline, geometric mean ratio to baseline (95% CI): 1.17 (0.86, 1.58)
  NT-proBNP, geo-mean (95% CI): 101.6 (69.9, 147.8) pg/mL
NT-proBNP; 0 h (pre-dose baseline), n=29
  NT-proBNP, geo-mean (95% CI): 87.0 (60.2, 125.8) pg/mL
[2]; 0 h (pre-dose baseline), n=25
  AIx, absolute value: 25.81 ± 7.70 (25) %
[2]; 2 h
  AIx, adjusted mean difference serelaxin versus placebo: -2.12%
[2]; 2 h, n=23
  AIx, change from baseline (adjusted mean): -4.09%
[2]; 2 h post-dose, n=23
  AIx, absolute value: 22.17 ± 10.09 (23) %
[2]; 6 h
  AIx, adjusted mean difference serelaxin versus placebo: -2.88%
[2]; 6 h, n=24
  AIx, change from baseline (adjusted mean): -3.28%
[2]; 6 h post-dose, n=24
  AIx, absolute value: 22.96 ± 6.95 (24) %
[2]; 24 h
  AIx, adjusted mean difference serelaxin versus placebo: –0.84%
[2]; 24 h, n=24
  AIx, change from baseline (adjusted mean): -0.77%
[2]; 24 h post-dose, n=24
  AIx, absolute value: 25.08 ± 8.10 (24) %
[2]; 47 h
  AIx, adjusted mean difference serelaxin versus placebo: 3.45%
[2]; 47 h, n=23
  AIx, change from baseline (adjusted mean): 3.49%
[2]; 47 h post-dose, n=23
  AIx, absolute value: 29.57 ± 9.75 (23) %
[2]; 50 h
  AIx, adjusted mean difference serelaxin versus placebo: 3.25%
[2]; 50 h, n=22
  AIx, change from baseline (adjusted mean): -0.76%
[2]; 50 h post-dose, n=22
  AIx, absolute value: 24.89 ± 12.50 (22) %
[2]; 54 h
  AIx, adjusted mean difference serelaxin versus placebo: -0.98%
[2]; 54 h, n=22
  AIx, change from baseline (adjusted mean): -1.74%
[2]; 54 h post-dose, n=22
  AIx, absolute value: 24.70 ± 10.62 (22) %
[2]; Day 30, n=25
  AIx, absolute value: 24.98 ± 9.05 (25) %
  AIx, change from baseline (adjusted mean): -0.98%
[2]; Day 30
  AIx, adjusted mean difference serelaxin versus placebo: -1.76%
[2]; Day 180, n=24
  AIx, absolute value: 26.15 ± 8.97 (24) %
  AIx, change from baseline (adjusted mean): 0.23%
[2]; Day 180
  AIx, adjusted mean difference serelaxin versus placebo: -0.05%
[2]; Day 180, listed as serelaxin
  AIx, adjusted mean difference serelaxin versus placebo: −0.05%
